Laboratory results published in patent publication US20050209104A1, “Dinoflagellate karlotoxins, methods of isolation and uses thereof” (priority 2002, published 2005).

System: K. micrum (CCMP 2282)
Assay: Exposure of Karlodinium micrum to KmTx 2
Assay type: cell-based
Procedure: Oxyrrhis marina (1.7×10^4 cells/mil) and K. micrum (CCMP 2282) (3.5×10^4 cells/ml) were exposed, in triplicate, to 0, 0.1, 0.5, and 1 μg/ml KmTx 2 in six well non-tissue culture treated polystyrene plates (Becton Dickinson Labware, Lincoln Park N.J.). The O. marina culture was obtained through single cell isolation from a Chesapeake Bay water sample and was maintained in 15 psu artificial sea water (Instant Ocean Brand) using Rhodomonas sp. (CCMP 767) as a food source. O. marina was starved for 24 hours prior to exposures to reduce the number of food organisms. K. micrum (CCMP 2282) was maintained in 12 psu artificial sea water (Instant Ocean Brand) with f/2 nutrient mixture plus 1% soil extract as described in Deeds et al. (2002). Cell densities were measured at 1 and 24 hours using a Coulter Multisizer II particle counter by enumerating the 7-20 μm and the […] size fractions, respectively, for K. micrum and O. marina using a Coulter Accucomp software package (Coulter Electronics Limited, Miami Fla.). […]
Hemolytic activity remaining in solution was measured at 1 hour by mixing 100 μl of each treatment with an equal volume of diluted rainbow trout RBC suspension as described above in Example 3.

## C=C(CC[C@H](O)[C@H]1O[C@H](C[C@@H](O)[C@H](O)[C@H](C)CCC[C@@H](O)[C@H](O)[C@H](O)[C@@H](C)CC[C@@H](O)[C@H](O)[C@H](C)C[C@@H](O)CCC[C@@H](O)CCC[C@@H](O)/C=C/C[C@@H](O)CO)[C@@H](O)[C@@H](O)[C@@H]1O)[C@H](O)[C@H](O)[C@@H]1C[C@H](O)[C@H](O)[C@@H]([C@H](O)[C@@H](O)/C=C/CCCCCCCC/C=C/C=C/Cl)O1 [KmTx 2]
1 μg/ml, after 24 hours
  K. micrum culture growth: continued to divide
0.1, 0.5, and 1 μg/ml
  effect on cultures of K. micrum: no effect
